Experimental data from patent US9096559B2, “4-carboxybenzylamino derivatives as histone deacetylase inhibitors” (Merck Sharp & Dohme Corp., priority 2007, dated 2015).
Read-outs that look alike come from different tables or passages of the source.

How the values were obtained:
[1] = tested on: HCT-116; assay: HCT-116 anti-proliferation (GI50); format: cell-based, human; conditions: means of n ≧ 2 experiments
Method: (§1) The novel compounds of the present invention were tested for their ability to inhibit proliferation of the human cervical cancer (HeLa) and colon carcinoma (HCT116) cells.
In this assay, also referred to as the Vialight Assay, cellular ATP levels are measured as a means of quantifying cellular proliferation. This assay makes use of a bioluminescent method from Cambrex (ViaLight PLUS, cat. #LT07-121). In the presence of ATP, luciferase converts luciferin to oxyluciferin and light. The amount of light produced (emission at 565 nm) is measured and correlates with a relative amount of proliferation. Human cervical cancer (HeLa) or colon carcinoma (HCT116) cells were incubated with vehicle or increasing concentrations of compound for 48, 72 or 96 hours. Cell proliferation was quantified by adding the cell lysis reagent (provided in the Vialight assay kit) directly to culture wells, followed by addition of the ATP-monitoring reagent (containing luciferase/luciferin). The amount of light produced is then measured (emission at 565 nm). The quantity of light produced, as measured by […], is directly proportional to the number of living cells in culture. […]

[2] = target: histone deacetylase, subtype 1 (HDAC1) (Homo sapiens (Human), UniProt Q13547); assay: HDAC1-Flag in vitro deacetylation assay; format: biochemical
How it was run: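 Enzyme: Flag epitope-tagged human HDAC1 complex immunopurified from stably expressing mammalian cells. Substrate carries an acetylated lysine side chain; deacetylation yields a fluorophore proportional to activity, measured as fluorescence.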

[3] = target: IKr ion channel (Homo sapiens (Human), UniProt Q12809); assay: Displacement binding assay using radio-labeled MK-499
Description: (§2) The ancillary pharmacology profiles of the SHI-1:2 carbamate analogs were also gathered to investigate off-target activities (Table 12).

[4] = target: CYP3A4 (Homo sapiens (Human), UniProt P08684); assay: CYP inhibition potential, CYP3A4; format: in vitro ADME
Description: as §2

[5] = target: CYP2C9 (Homo sapiens (Human), UniProt P11712); assay: CYP inhibition potential, CYP2C9; format: in vitro ADME
Description: as §2

[6] = target: CYP2D6 (Homo sapiens (Human), UniProt P10635); assay: CYP inhibition potential, CYP2D6; format: in vitro ADME
Description: as §2

[7] = tested on: human cervical cancer (HeLa) and colon carcinoma (HCT116) cells; assay: ATP (Vialight) cell proliferation assay, 72 hr; format: cell-based; conditions: IP = inflection point, cell line not given, read-out: Prol-72 hr IP (inflection point)
Method: as §1
In this assay, also referred to as the Vialight Assay, cellular ATP levels are measured as a means of quantifying cellular proliferation. This assay makes use of a bioluminescent method from Cambrex (ViaLight PLUS, cat. #LT07-121). In the presence of ATP, luciferase converts luciferin to oxyluciferin and light. The amount of light produced (emission at 565 nm) is measured and correlates with a relative amount of proliferation. Human cervical cancer (HeLa) or colon carcinoma (HCT116) cells were incubated with vehicle or increasing concentrations of compound for 48, 72 or 96 hours. Cell proliferation was quantified by adding the cell lysis reagent (provided in the Vialight assay kit) directly to culture wells, followed by addition of the ATP-monitoring reagent (containing luciferase/luciferin). The amount of light produced is then measured (emission at 565 nm). The quantity of light produced, as measured by […], is directly proportional to the number of living cells in culture.

[8] = means of n ≧ 2 experiments, read-out: HDAC1 IC50
[9] = IP = inflection point, read-out: HDAC1 IP (inflection point)

Chain of CYP2C9 (P11712 whole entry): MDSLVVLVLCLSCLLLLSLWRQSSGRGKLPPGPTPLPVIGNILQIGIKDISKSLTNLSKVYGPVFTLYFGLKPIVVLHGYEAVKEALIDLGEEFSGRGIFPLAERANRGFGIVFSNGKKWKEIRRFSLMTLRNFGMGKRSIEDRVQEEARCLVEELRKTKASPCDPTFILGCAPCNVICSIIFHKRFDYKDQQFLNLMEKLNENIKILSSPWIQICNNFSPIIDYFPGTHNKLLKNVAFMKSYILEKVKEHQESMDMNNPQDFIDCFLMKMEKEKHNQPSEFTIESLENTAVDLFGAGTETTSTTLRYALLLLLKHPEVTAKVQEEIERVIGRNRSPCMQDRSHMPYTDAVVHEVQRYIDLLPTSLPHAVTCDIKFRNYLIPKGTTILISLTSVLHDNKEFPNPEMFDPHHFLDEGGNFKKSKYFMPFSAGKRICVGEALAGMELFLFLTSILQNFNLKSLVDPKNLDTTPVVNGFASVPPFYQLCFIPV
Chain of histone deacetylase, subtype 1 (HDAC1) (Q13547 whole entry): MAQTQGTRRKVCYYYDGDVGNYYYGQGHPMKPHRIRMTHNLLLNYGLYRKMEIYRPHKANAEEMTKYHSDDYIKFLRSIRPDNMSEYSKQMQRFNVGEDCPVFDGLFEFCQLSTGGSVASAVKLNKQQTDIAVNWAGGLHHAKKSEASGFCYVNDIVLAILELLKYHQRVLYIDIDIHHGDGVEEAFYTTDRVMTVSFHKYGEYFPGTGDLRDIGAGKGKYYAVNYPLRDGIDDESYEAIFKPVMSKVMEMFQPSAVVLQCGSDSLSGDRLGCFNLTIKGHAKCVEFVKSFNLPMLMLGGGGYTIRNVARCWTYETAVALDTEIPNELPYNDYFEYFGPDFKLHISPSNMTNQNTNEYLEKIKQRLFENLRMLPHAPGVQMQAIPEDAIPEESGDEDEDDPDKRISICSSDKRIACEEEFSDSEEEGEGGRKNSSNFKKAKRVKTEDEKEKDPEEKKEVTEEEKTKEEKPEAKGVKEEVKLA
Chain of IKr ion channel (Q12809 whole entry): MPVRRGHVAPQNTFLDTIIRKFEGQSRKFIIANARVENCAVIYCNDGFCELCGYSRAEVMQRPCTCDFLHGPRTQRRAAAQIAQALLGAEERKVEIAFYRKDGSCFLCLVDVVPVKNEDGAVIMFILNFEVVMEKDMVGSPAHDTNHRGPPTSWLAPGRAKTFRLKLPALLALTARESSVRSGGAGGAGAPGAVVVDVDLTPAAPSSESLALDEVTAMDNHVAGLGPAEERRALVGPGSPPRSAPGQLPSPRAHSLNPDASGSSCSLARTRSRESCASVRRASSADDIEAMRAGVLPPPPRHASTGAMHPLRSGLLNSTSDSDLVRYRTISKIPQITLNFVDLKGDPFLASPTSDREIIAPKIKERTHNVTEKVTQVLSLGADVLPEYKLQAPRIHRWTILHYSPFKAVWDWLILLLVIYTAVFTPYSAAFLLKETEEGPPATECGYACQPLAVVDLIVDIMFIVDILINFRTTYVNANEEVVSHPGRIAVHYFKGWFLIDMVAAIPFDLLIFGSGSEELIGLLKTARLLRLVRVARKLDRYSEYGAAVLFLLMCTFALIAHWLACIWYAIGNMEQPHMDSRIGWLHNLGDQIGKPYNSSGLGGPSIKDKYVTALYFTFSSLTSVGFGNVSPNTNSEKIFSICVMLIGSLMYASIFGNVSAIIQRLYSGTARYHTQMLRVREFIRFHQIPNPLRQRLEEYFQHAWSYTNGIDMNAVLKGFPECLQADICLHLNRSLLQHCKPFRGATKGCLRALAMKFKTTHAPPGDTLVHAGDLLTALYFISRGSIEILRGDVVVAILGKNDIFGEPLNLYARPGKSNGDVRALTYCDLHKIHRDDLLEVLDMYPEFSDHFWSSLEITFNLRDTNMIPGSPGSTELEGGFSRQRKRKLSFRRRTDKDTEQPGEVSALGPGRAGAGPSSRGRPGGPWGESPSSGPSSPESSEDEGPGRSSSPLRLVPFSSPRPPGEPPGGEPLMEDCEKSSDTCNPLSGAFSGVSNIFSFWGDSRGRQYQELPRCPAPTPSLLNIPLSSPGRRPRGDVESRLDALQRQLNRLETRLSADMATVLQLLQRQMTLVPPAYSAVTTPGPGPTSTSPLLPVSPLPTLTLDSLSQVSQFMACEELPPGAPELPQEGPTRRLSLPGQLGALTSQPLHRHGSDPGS
Chain of CYP3A4 (P08684 whole entry): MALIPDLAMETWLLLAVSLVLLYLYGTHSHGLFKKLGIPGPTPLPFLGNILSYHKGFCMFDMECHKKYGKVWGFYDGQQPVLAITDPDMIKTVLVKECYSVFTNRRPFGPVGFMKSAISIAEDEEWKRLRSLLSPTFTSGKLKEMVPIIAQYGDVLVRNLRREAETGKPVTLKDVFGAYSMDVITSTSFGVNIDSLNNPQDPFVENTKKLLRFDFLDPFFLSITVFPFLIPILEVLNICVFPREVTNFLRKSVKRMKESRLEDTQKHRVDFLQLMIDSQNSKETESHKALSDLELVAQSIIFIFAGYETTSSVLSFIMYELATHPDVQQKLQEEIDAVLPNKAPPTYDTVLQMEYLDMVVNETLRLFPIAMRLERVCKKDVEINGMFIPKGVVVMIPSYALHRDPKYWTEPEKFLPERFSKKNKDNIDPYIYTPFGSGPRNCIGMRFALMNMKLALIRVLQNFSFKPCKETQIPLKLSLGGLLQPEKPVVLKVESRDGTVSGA
Chain of CYP2D6 (P10635 whole entry): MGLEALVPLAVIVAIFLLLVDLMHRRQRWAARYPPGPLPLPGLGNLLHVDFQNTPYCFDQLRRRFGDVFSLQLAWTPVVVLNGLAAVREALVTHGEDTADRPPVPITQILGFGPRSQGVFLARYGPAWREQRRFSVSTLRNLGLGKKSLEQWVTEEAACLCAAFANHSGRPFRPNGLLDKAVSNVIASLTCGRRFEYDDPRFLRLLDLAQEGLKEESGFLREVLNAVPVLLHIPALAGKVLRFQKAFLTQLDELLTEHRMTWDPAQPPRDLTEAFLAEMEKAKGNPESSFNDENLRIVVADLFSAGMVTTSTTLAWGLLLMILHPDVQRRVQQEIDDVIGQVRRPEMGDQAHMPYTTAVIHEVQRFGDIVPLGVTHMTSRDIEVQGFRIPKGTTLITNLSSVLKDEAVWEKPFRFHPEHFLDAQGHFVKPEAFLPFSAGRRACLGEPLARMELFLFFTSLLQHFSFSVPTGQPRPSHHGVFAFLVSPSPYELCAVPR

| Structure (SMILES) | GI50 [1] [nM] | IC50 [2, 8] [nM] | % CYP Inhibition @ 10 μM 3A4 [4] [%] | % CYP Inhibition @ 10 μM 2C9 [5] [%] | % CYP Inhibition @ 10 μM 2D6 [6] [%] | IC50 [2, 9] [nM] | IC50 [7] [nM] | IC50 [3] [nM] | % MK-499 Binding Inhibition @ 10 μM [3] [%] |
| --- | --- | --- | --- | --- | --- | --- | --- | --- | --- |
| Nc1ccc(-c2cccc(F)c2)cc1NC(=O)c1ccc(CNc2ccncc2)cc1 [Example 68, N-(4-amino-3′-fluoro-3-biphenylyl)-4-[(4-pyridinylamino)methyl]benzamide] |  |  |  |  |  | 27 | 9100 |  |  |
| Cc1csc(-c2ccc(N)c(NC(=O)c3ccc(CNc4ccncc4)cc3)c2)c1 [Example 69, N-[2-amino-5-(4-methyl-2-thienyl)phenyl]-4-[(4-pyridinylamino)methyl]benzamide] |  |  |  |  |  | 15 | 9700 |  |  |
| Cc1cscc1-c1ccc(N)c(NC(=O)c2ccc(CNc3ccncc3)cc2)c1 [Example 70, N-[2-amino-5-(4-methyl-3-thienyl)phenyl]-4-[(4-pyridinylamino)methyl]benzamide] |  |  |  |  |  | 180 | 13000 |  |  |
| Nc1ccc(-c2ccccc2)cc1NC(=O)c1ccc(CN2C(=O)OC[C@@H]2c2ccccc2)cc1 [Example 118, N-(4-aminobiphenyl-3-yl)-4-{[(4S)-2-oxo-4-phenyl-1,3-oxazolidin-3-yl]methyl}benzamide] |  |  |  |  |  | 64 | 1400 |  |  |
| Nc1ccc(-c2ccccc2)cc1NC(=O)c1ccc(CN2C(=O)OC[C@H]2Cc2ccccc2)cc1 [Example 119, N-(4-aminobiphenyl-3-yl)-4-{[(4R)-2-oxo-4-(phenylmethyl)-1,3-oxazolidin-3-yl]methyl}benzamide] |  |  |  |  |  | 89 | 1700 |  |  |
| Nc1ccc(-c2cccs2)cc1NC(=O)c1ccc(CN2C(=O)OC[C@H]2Cc2ccccc2)cc1 [Example 120, N-[2-amino-5-(2-thienyl)phenyl]-4-{[(4R)-2-oxo-4-(phenylmethyl)-1,3-oxazolidin-3-yl]methyl}benzamide] |  |  |  |  |  | 84 | 920 |  |  |
| Nc1ccc(-c2ccccc2)cc1NC(=O)c1ccc(CN2C(=O)OC[C@@H]2Cc2ccccc2)cc1 [Example 121, N-(4-aminobiphenyl-3-yl)-4-{[(4S)-2-oxo-4-(phenylmethyl)-1,3-oxazolidin-3-yl]methyl}benzamide] |  |  |  |  |  | 96 | 1400 |  |  |
| CC(=O)N(Cc1ccc(C(=O)Nc2cc(-c3cccs3)ccc2N)cc1)Cc1cn(C)nn1 [Example 123, 4-({Acetyl[(1-methyl-1H-1,2,3-triazol-4-yl)methyl]amino}methyl)-N-[2-amino-5-(2-thienyl)phenyl]benzamide] |  |  |  |  |  | 9.5 | 87 |  |  |

Second part, led by results:

| GI50 [1] [nM] | IC50 [2, 8] [nM] | % CYP Inhibition @ 10 μM 3A4 [4] [%] | % CYP Inhibition @ 10 μM 2C9 [5] [%] | % CYP Inhibition @ 10 μM 2D6 [6] [%] | IC50 [2, 9] [nM] | IC50 [7] [nM] | Structure (SMILES) | IC50 [3] [nM] | % MK-499 Binding Inhibition @ 10 μM [3] [%] |
| --- | --- | --- | --- | --- | --- | --- | --- | --- | --- |
| 225 |  |  |  |  |  |  | Nc1ccc(-c2ccccc2)cc1NC(=O)c1ccc(CNC(=O)OCc2cccnc2)cc1 [Example 2a] |  |  |
| 337 | 11 | 65 | 73 | 25 |  |  | Nc1ccc(-c2ccccc2)cc1NC(=O)c1ccc(CNC(=O)CCc2cccnc2)cc1 [Example 14a] | 3700 |  |
| 435 | 8 | 38 | 67 | 29 |  |  | Nc1ccc(-c2ccccc2)cc1NC(=O)c1ccc(CNC(=O)OCc2ccccn2)cc1 [Example 14b] |  | 51 |
| 230 | 13 | 22 | 35 | 26 |  |  | CCOC(=O)NCc1ccc(C(=O)Nc2cc(-c3ccccc3)ccc2N)cc1 [Example 14e] |  | 40 |
| 230 |  | 23 | 46 | 49 |  |  | COC(=O)NCc1ccc(C(=O)Nc2cc(-c3ccccc3)ccc2N)cc1 [Example 14f] |  | 28 |
| 220 | 10 | 33 | 27 | 28 |  |  | CCCC(=O)NCc1ccc(C(=O)Nc2cc(-c3ccccc3)ccc2N)cc1 [Example 14g] |  | 38 |
| 150 | 10 | 30 | 28 | 38 |  |  | CCC(=O)NCc1ccc(C(=O)Nc2cc(-c3ccccc3)ccc2N)cc1 [Example 14h] |  | 24 |
| 335 | 20 | 12 | 32 | 17 |  |  | Nc1ccc(-c2ccccc2)cc1NC(=O)c1ccc(CNC(=O)C2CCCCC2)cc1 [Example 14i] |  | 30 |
|  |  |  |  |  | 58 | 1100 | Nc1ccc(-c2ccccc2)cc1NC(=O)c1ccc(CN2C(=O)OC[C@H]2c2ccccc2)cc1 [Example 122, N-(4-aminobiphenyl-3-yl)-4-{[(4R)-2-oxo-4-phenyl-1,3-oxazolidin-3-yl]methyl}benzamide] |  |  |
|  |  |  |  |  | 34 | > 20000 | Nc1ccc(-c2cccs2)cc1NC(=O)c1ccc(CNCC(=O)O)cc1 [Example 124, {[4-({[2-amino-5-(2-thienyl)phenyl]amino}carbonyl)benzyl]amino}acetic acid] |  |  |
|  |  |  |  |  | 42 | > 20000 | Nc1ccc(-c2ccsc2)cc1NC(=O)c1ccc(CNCC(=O)O)cc1 [Example 125, {[4-({[2-amino-5-(3-thienyl)phenyl]amino}carbonyl)benzyl]amino}acetic acid] |  |  |
